Results as given in US8030354B2, “Substituted biphenyl GPR40 modulators” (Amgen Inc., priority 2007, dated 2011).

Columns and labels:
GPR40 [1] = target: T1, GPR40 (Homo sapiens, UniProt O14842); experiment: Inositol phosphate accumulation in response to compounds; assay type: cell-based; parameters: expressed in transfected cells; settings: FIG. 3; as a function of concentration; compared with Comparative Compound 1
Source text: FIG. 3 is a graph showing inositol phosphate accumulation in response to various compounds as a function of concentration.

GPR40 [2] = target: T1, GPR40; experiment: Displacement of 3H-labeled Comparative Compound 1 by unlabeled compounds; assay type: binding; parameters: expressed in transfected cells; host or cells: membranes of A9 cells expressing GPR40; settings: FIG. 1
GPR40 [3] = target: T1, GPR40; experiment: Competition binding assay on A9 membranes expressing GPR40 with [3H] labeled Comparative Compound 1; parameters: expressed in transfected cells; host or cells: membranes of A9 cells expressing GPR40; settings: 5 nM radioligand, 4 hours, room temperature
Procedure: Competition binding assays were performed on A9 membranes expressing GPR40.

GPR40 [4] = target: T1, GPR40; experiment: Cell-based aequorin assay (CHO cells stably expressing GPR40 and aequorin); parameters: expressed in transfected cells; host or cells: CHO cells stably transfected with GPR40 and aequorin; settings: for EC50: activation of human GPR40, CHO cells, 0.01% HSA
Procedure, shortened: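 CHO cells stably co-expressing GPR40 and aequorin, loaded with coelenterazine (1 ug/mL, 2 h, room temperature) in H/HBSS with 20 mM Hepes and 0.01% fatty acid-free HSA. Serially diluted compounds added; luminescence recorded over 20 s. EC50 from dose-response of maximum relative light units.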

GPR40 [5] = target: T1, GPR40; experiment: Inositol phosphate accumulation assay (A9_GPR40 cells); assay type: cell-based; parameters: expressed in transfected cells; host or cells: CHO cells stably transfected with GPR40 and aequorin; settings: for agonist type in inositol phosphate accumulation assay: [3H] inositol accumulation after 1 hour, FIG. 3; for EC50: inositol phosphate assay, A9_GPR40 cells, 1 hour, read-out: IP3 EC50
Procedure, shortened: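 [^3H] inositol phosphate accumulation was measured by SPA after 1 h compound exposure at 37° C in HBSS/10 mM LiCl containing HSA, ending with a 20 mM formic acid quench. The GPR40-transfected A9 cells had first been labelled overnight (16 h) with 1 μCi/mL ^3H-inositol.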

[6] = system: fetal rat intestinal cells isolated from E19 rat embryos; experiment: GLP-1 secretion into culture medium from fetal rat intestinal cells; assay type: cell-based; settings: FIG. 5-7; cultured cells treated with serial dilutions of compound
Procedure: (§1) FIG. 5 is a graph showing the concentration of GLP-1 secreted into culture medium as a function of the amount of Example compounds 14 and 69.8. The GLP-1 was secreted from fetal rat intestinal cells isolated from E19 rat embryos. The cultured cells were treated with serial dilutions of the indicated compounds, and GLP-1 secreted into the culture medium was determined.
as §1, with “6” for “5”, “compound 66.6.” for “compounds 14 and 69.8.”, “compound,” for “compounds,”
as §1, with “7” for “5”, “14, 66.17, 77.3,” for “14”, “83.1.” for “69.8.”

GPR40 [7] = target: T1, GPR40; experiment: Aequorin luminescence in response to compounds; assay type: cell-based; parameters: expressed in transfected cells; settings: FIG. 2; as a function of concentration; compared with fatty acid ligands
Source text: FIG. 2 is a graph showing Aequorin luminescence in response to various compounds as a function of concentration.

T1 sequence (O14842 whole entry): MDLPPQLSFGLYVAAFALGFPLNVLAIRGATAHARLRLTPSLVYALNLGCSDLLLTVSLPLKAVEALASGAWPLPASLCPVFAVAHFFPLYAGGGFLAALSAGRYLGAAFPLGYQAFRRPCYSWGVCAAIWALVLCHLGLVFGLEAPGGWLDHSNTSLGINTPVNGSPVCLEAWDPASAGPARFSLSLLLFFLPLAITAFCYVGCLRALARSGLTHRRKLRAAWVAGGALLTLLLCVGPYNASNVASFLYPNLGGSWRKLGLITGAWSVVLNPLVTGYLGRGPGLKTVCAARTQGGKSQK

Row | SMILES | inositol phosphate accumulation (GPR40 [1]) | displacement of 3H-labeled Comparative Compound 1 / total binding of 3H-labeled Comparative Compound 1 (GPR40 [2]) | displacement of bound [3H] labeled Comparative Compound 1 (GPR40 [3]) | effect on binding of the radioligand (Comparative Compound 1) to the receptor (GPR40 [3]) | EC50 (GPR40 [4]) [nM] | agonist type in inositol phosphate accumulation assay (GPR40 [5]) | EC50 (GPR40 [5]) [nM] | concentration of GLP-1 secreted into culture medium [6] | Aequorin luminescence (GPR40 [7]) | agonist type in aequorin assay (GPR40 [4]; compared with α-linolenic acid and docosahexaenoic acid, FIG. 2)
1 | CCCCOc1cc(COc2cccc([C@@H](CC(=O)O)C3CC3)c2)ccc1-c1cc(OC)ccc1F (single isomer, unassigned) [Example 9, (3S)-3-(3-(((2-(Butyloxy)-2′-fluoro-5′-(methyloxy)-1,1′-biphenyl-4-yl)methyl)oxy)phenyl)-3-cyclopropylpropanoic acid or (3R)-3-(3-(((2-(butyloxy)-2′-fluoro-5′-(methyloxy)-1,1′-biphenyl-4-yl)methyl)oxy)phenyl)-3-cyclopropylpropanoic acid] | greater than Comparative Compound 1 | enhanced the total binding | did not displace | enhanced the binding of the radioligand | 100 to 1000 | potent full agonists | 100 to 1000 |  |  | 
2 | COc1ccc(F)c(-c2ccc(COc3cccc([C@@H](CC(=O)O)C4CC4)c3)cc2C2=CCCC2(C)C)c1 (single isomer, unassigned) [Example 14, (3S)-3-Cyclopropyl-3-(3-(((2-(5,5-dimethyl-1-cyclopenten-1-yl)-2′-fluoro-5′-(methyloxy)-1,1′-biphenyl-4-yl)methyl)oxy)phenyl)propanoic acid or (3R)-3-cyclopropyl-3-(3-(((2-(5,5-dimethyl-1-cyclopenten-1-yl)-2′-fluoro-5′-(methyloxy)-1,1′-biphenyl-4-yl)methyl)oxy)phenyl)propanoic acid] | greater than Comparative Compound 1 | enhanced the total binding | did not displace | enhanced the binding of the radioligand | 100 to 1000 | potent full agonists | 10 to 100 | significantly stimulated GLP-1 secretion | equivalent to naturally occurring fatty acid ligands | potent full agonists
